The values below come from patent publication US12319676B2, “Substituted amide compounds useful as farnesoid X receptor modulators” (BRISTOL-MYERS SQUIBB COMPANY, priority 2019, dated 2025).

This experiment has as its target T1, human FXR (Homo sapiens, UniProt Q96RI1).
T1 construct: expressed in transfected cells; host or cells: HEK293 cells stably carrying a 5xGal4 response element-luciferase reporter, transiently transfected with pcDNA3.1-Gal4-FXR
T1 sequence (Q96RI1 262-486 limits assumed): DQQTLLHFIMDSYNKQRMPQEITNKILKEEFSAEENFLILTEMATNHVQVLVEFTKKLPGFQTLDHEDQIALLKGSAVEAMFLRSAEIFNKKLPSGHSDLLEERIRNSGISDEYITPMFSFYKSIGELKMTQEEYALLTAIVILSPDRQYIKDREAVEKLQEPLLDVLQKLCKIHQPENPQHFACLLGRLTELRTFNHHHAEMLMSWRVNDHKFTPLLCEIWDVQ
Description: transient human FXR/Gal4-luciferase reporter assay. In kind it is cell-based. The conditions noted are these: Gal4-hFXR fusion construct, luciferase reporter in HEK293 cells; overnight incubation; response as percentage of 8 μM GW-4064 control. A digest of the protocol:
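HEK293 cells stably carrying a 5×Gal4-response-element firefly luciferase reporter were transiently transfected with a Gal4 DBD-human FXR LBD fusion, then treated overnight with compounds at 37 °C. Steady-Glo luminescence, minus DMSO background, was expressed as percent of the response to 8 μM GW-4064.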
On the technique in general: Reporter assays use an easily measured gene product as a stand-in for the process of interest.
As to `CS(=O)(=O)c1cccc(N(CC23CCC(c4nc(C5CC5)no4)(CC2)CC3)C(=O)C2CCC(F)(F)CC2)c1` [Example 69, N-((4-(3-cyclopropyl-1,2,4-oxadiazol-5-yl)bicyclo[2.2.2]octan-1-yl)methyl)-4,4-difluoro-N-(3-(methylsulfonyl)phenyl)cyclohexane-1-carboxamide], the midpoint of the response, the EC50, lay at 4 µM.
Turning to `CC(N(C(=O)C12CC(F)(C1)C2)c1cccc(C#N)c1)C12CCC(c3nc(C4CC4)no3)(CC1)CC2` (centres unmarked) [Example 70, N-(3-cyanophenyl)-N-(1-(4-(3-cyclopropyl-1,2,4-oxadiazol-5-yl)bicyclo[2.2.2]octan-1-yl)ethyl)-3-fluorobicyclo[1.1.1]pentane-1-carboxamide], the EC50 – broadly, the concentration needed to bring the measured effect to its halfway point – worked out at 2 µM.
Consider `Cn1nc(C2CC2)cc1C12CCC(CN(C(=O)C34CC(F)(C3)C4)c3cccc(C#N)c3)(CC1)CC2` [Example 72, N-(3-cyanophenyl)-N-((4-(3-cyclopropyl-1-methyl-1H-pyrazol-5-yl)bicyclo[2.2.2]octan-1-yl)methyl)-3-fluorobicyclo[1.1.1]pentane-1-carboxamide], for which it took 0.993 µM to reach a half-maximal effect (EC50).
In turn, `Cn1nc(C2CC2)cc1C12CCC(CN(C(=O)C3CCC(F)(F)CC3)c3cccc(C#N)c3)(CC1)CC2` [Example 73, N-(3-cyanophenyl)-N-((4-(3-cyclopropyl-1-methyl-1H-pyrazol-5-yl)bicyclo[2.2.2]octan-1-yl)methyl)-4,4-difluorocyclohexane-1-carboxamide] showed an EC50 of 2.13 µM.
Take `Cn1nc(C2CC2)cc1C12CCC(CN(c3cccc(C#N)c3)C(=O)[C@H]3C[C@@](C)(O)C3)(CC1)CC2` [Example 74, (1S,3S)-N-(3-cyanophenyl)-N-((4-(3-cyclopropyl-1-methyl-1H-pyrazol-5-yl)bicyclo[2.2.2]octan-1-yl)methyl)-3-hydroxy-3-methylcyclobutane-1-carboxamide]: the EC50 was 1.35 µM.
The molecule `Cn1nc(C2CC2)cc1C12CCC(CN(c3cccc(C#N)c3)C(=O)[C@H]3C[C@](O)(C(F)(F)F)C3)(CC1)CC2` [Example 75, (1S,3S)-N-(3-cyanophenyl)-N-((4-(3-cyclopropyl-1-methyl-1H-pyrazol-5-yl)bicyclo[2.2.2]octan-1-yl)methyl)-3-hydroxy-3-(trifluoromethyl)cyclobutane-1-carboxamide] returned an EC50 of 1.38 µM.
On to `Cn1nc(C2CC2)cc1C12CCC(CN(c3cccc(S(C)(=O)=O)c3)C(=O)[C@H]3C[C@](O)(C(F)(F)F)C3)(CC1)CC2` [Example 76, (1S,3S)—N-((4-(3-cyclopropyl-1-methyl-1H-pyrazol-5-yl)bicyclo[2.2.2]octan-1-yl)methyl)-3-hydroxy-N-(3-(methylsulfonyl)phenyl)-3-(trifluoromethyl)cyclobutane-1-carboxamide], for which the EC50 turned out to be 4 µM.
Take `Cn1nc(C2CC2)cc1C12CCC(CN(C(=O)C3CCC(F)(F)CC3)c3cccc(S(C)(=O)=O)c3)(CC1)CC2` [Example 77, N-((4-(3-cyclopropyl-1-methyl-1H-pyrazol-5-yl)bicyclo[2.2.2]octan-1-yl)methyl)-4,4-difluoro-N-(3-(methylsulfonyl)phenyl) cyclohexane-1-carboxamide]: the response was half-maximal at 4 µM (EC50).
Next, `Cn1nc(C2CC2)cc1C12CCC(CN(C(=O)C34CC(F)(C3)C4)c3cccc(S(C)(=O)=O)c3)(CC1)CC2` [Example 78, N-((4-(3-cyclopropyl-1-methyl-1H-pyrazol-5-yl)bicyclo[2.2.2]octan-1-yl)methyl)-3-fluoro-N-(3-(methylsulfonyl)phenyl)bicyclo[1.1.1]pentane-1-carboxamide]: 4 µM; `COC(=O)COc1cccc(N(CC23CCC(c4ccc(N(C)C)c(Cl)c4)(CC2)CC3)C(=O)C2CCCCC2)c1` [Example 79, Methyl 2-(3-(N-((4-(3-chloro-4-(dimethylamino)phenyl)bicyclo[2.2.2]octan-1-yl)methyl)cyclohexanecarboxamido)phenoxy) acetate]: 1.04 µM; `COC(=O)COc1cccc(N(CC23CCC(c4ccc(N(C)C)cc4)(CC2)CC3)C(=O)C2CCCCC2)c1` [Example 80, Methyl 2-(3-(N-((4-(4-(dimethylamino)phenyl)bicyclo[2.2.2]octan-1-yl)methyl)cyclohexanecarboxamido)phenoxy) acetate]: 1.6 µM.
Consider `COC(=O)COc1cccc(N(CC23CCC(c4ccc5c(cnn5C)c4)(CC2)OC3)C(=O)C2CCOCC2)c1` [Example 81, Methyl 2-(3-(N-((1-(1-methyl-1H-indazol-5-yl)-2-oxabicyclo[2.2.2]octan-4-yl)methyl)tetrahydro-2H-pyran-4-carboxamido)phenoxy) acetate], for which the response was half-maximal at 4.36 µM (EC50).
In turn, `Cc1noc(C23CCC(CN(C(=O)C4CCCCC4)c4cccc(C(=O)Nc5nccs5)c4)(CC2)CC3)n1` [Example 82, 3-(N-((4-(3-methyl-1,2,4-oxadiazol-5-yl)bicyclo[2.2.2]octan-1-yl)methyl)cyclohexanecarboxamido)-N-(thiazol-2-yl)benzamide] came in with an EC50 of 3.01 µM.
Consider `CCOc1ccc(Nc2cccc(N(CC34CCC(c5nc(C(C)(C)C)no5)(CC3)CC4)C(=O)C34CC(F)(C3)C4)c2)cc1` [Example 83, N-((4-(3-(tert-butyl)-1,2,4-oxadiazol-5-yl)bicyclo[2.2.2]octan-1-yl)methyl)-N-(3-((4-ethoxyphenyl)amino)phenyl)-3-fluorobicyclo[1.1.1]pentane-1-carboxamide], for which the EC50 came to 1.13 µM.
`CC(C)(C)c1nc(C23CCC(CN(C(=O)C45CC(F)(C4)C5)c4cccc(Nc5ccc(OC(F)F)cc5)c4)(CC2)CC3)no1` [Example 84, N-((4-(5-(tert-butyl)-1,2,4-oxadiazol-3-yl)bicyclo[2.2.2]octan-1-yl)methyl)-N-(3-((4-(difluoromethoxy)phenyl)amino)phenyl)-3-fluorobicyclo[1.1.1]pentane-1-carboxamide] registered an EC50 of 0.084 µM.
In turn, `CCOc1ccc(Nc2cccc(N(CC34CCC(c5noc(C(C)(C)C)n5)(CC3)CC4)C(=O)C34CC(F)(C3)C4)c2)cc1` [Example 85, N-((4-(5-(tert-butyl)-1,2,4-oxidial-3-yl)bicyclo[2.2.2]octan-1-yl)methyl)-N-(3-((4-ethoxyphenyl)amino)phenyl)-3-fluorobicyclo[1.1.1]pentane-1-carboxamide] displayed an EC50 of 0.608 µM.
`CCc1ccc(Nc2cccc(N(CC34CCC(c5noc(C(C)(C)C)n5)(CC3)CC4)C(=O)C34CC(F)(C3)C4)c2)cc1` [Example 86, N-((4-(5-(tert-butyl)-1,2,4-oxadiazol-3-yl)bicyclo[2.2.2]octan-1-yl)methyl)-N-(3-((4-ethylphenyl)amino)phenyl)-3-fluorobicyclo[1.1.]pentane-1-carboxamide] had an EC50 of 0.519 µM.
On to `CC(C)(C)c1nc(C23CCC(CN(C(=O)C45CC(F)(C4)C5)c4cccc(Nc5ccc(C(F)(F)F)cc5)c4)(CC2)CC3)no1` [Example 87, N-((4-(5-(tert-butyl)-1,2,4-oxadiazol-3-yl)bicyclo[2.2.2]octan-1-yl)methyl)-3-fluoro-N-(3-((4-(trifluoromethyl)phenyl)amino)phenyl)bicyclo[1.1.1]pentane-1-carboxamide], for which a half-maximal effect (EC50) was put at 2 µM.
In turn, `CC(C)(C)c1nc(C23CCC(CN(C(=O)C45CC(F)(C4)C5)c4cccc(Nc5ccc(F)cc5)c4)(CC2)CC3)no1` [Example 88, N-((4-(5-(tert-butyl)-1,2,4-oxadiazol-3-yl)bicyclo[2.2.2]octan-1-yi)methyl)-3-fluoro-N-(3-((4-fluorophenyl)amino)phenyl)bicyclo[1.1.1]pentane-1-carboxamide] gave an EC50 of 0.179 µM.
With `COC(=O)CCc1cccc(N(CC23CCC(c4ccc(N(C)C)cc4)(CC2)CC3)C(=O)C2CCCCC2)c1` [Example 89, Methyl 3-(3-(N-((4-(4-(dimethylamino)phenyl)bicyclo[2.2.2]octan-1-yl)methyl)cyclohexanecarboxamido)phenyl)propanoate], the EC50 amounted to 1.12 µM.
Molecule `CS(=O)(=O)c1cccc(N(CC23CCC(c4nc(C5CC5)no4)(CC2)CC3)C(=O)[C@H]2C[C@](O)(C(F)(F)F)C2)c1` [Example 90, (1S,3S)—N-((4-(3-cyclopropyl-1,2,4-oxadiazol-5-yl)bicyclo[2.2.2]octan-1-yl)methyl)-3-hydroxy-N-(3-(methylsulfonyl)phenyl)-3-(trifluoromethyl)cyclobutane-1-carboxamide] registered an EC50 of 4 µM.
Consider `N#CC1(c2ccc(Nc3cccc(N(CC45CCC(c6noc(C7(F)CC7)n6)(CC4)CC5)C(=O)[C@H]4C[C@](O)(C(F)(F)F)C4)c3)cc2)CC1` [Example 91, (1S,3S)—N-(3-((4-(1-cyanocyclopropyl)phenyl)amino)phenyl)-N-((4-(5-(1-fluorocyclopropyl)-1,2,4-oxadiazol-3-yl)bicyclo[2.2.2]octan-1-yl)methyl)-3-hydroxy-3-(trifluoromethyl)cyclobutane-1-carboxamide], for which a half-maximal response (EC50) required 2.19 µM.
With `CC(C)(C#N)Oc1ccc(Nc2cccc(N(CC34CCC(c5ccc(C(C)(F)F)cn5)(CC3)CC4)C(=O)[C@H]3C[C@](O)(C(F)(F)F)C3)c2)cc1` [Example 92, (1S,3S)—N-(3-((4-((2-cyanopropan-2-yl)oxy)phenyl)amino)phenyl)-N-((4-(5-(1,1-difluoroethyl)pyridin-2-yl)bicyclo[2.2.2]octan-1-yl)methyl)-3-hydroxy-3-(trifluoromethyl)cyclobutane-1-carboxamide], the midpoint of the response, the EC50, lay at 2.03 µM.
